Laboratory results from PubChem BioAssay (NCI).
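These data come from cells grown in 96-well plates and exposed to compound for 48 hours at five concentrations. The concentration for 50% growth inhibition is given as GI50. TGI: total growth inhibition.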

What was measured:
Test in all cases: growth of human tumour cells (NCI), 48 h
[1] = tested on: LOX IMVI melanoma
[2] = tested on: OVCAR-4 ovarian
[3] = tested on: A549 NSCLC
[4] = tested on: OVCAR-5 ovarian
[5] = tested on: MCF7 breast
[6] = tested on: NCI-H226 lung
[7] = tested on: KM12 colon
[8] = tested on: HS 578T breast
[9] = tested on: SF-268 CNS
[10] = tested on: HCT-116 colon
[11] = tested on: UACC-62 melanoma
[12] = tested on: DU-145 prostate
[13] = tested on: HOP-92 NSCLC
[14] = tested on: SNB-19 CNS
[15] = tested on: RPMI-8226 leukemia
[16] = tested on: HCC-2998 colon
[17] = tested on: 786-0 renal
[18] = tested on: HCT-15 colon
[19] = tested on: M14 melanoma
[20] = tested on: EKVX NSCLC
[21] = tested on: SN12C renal
[22] = tested on: UO-31 renal
[23] = tested on: A498 renal
[24] = tested on: CCRF-CEM leukemia
[25] = tested on: ACHN renal
[26] = tested on: MDA-MB-435
[27] = tested on: U251 CNS
[28] = tested on: UACC-257 melanoma

N#Cc1c(NCc2ccccc2)nc(NCc2ccccc2)c(C#N)c1-c1cccc(O)c1
TGI [1]: 11.5 µM
GI50 [2]: 23.6 µM
TGI [2]: > 100 µM
GI50 [3]: 13.3 µM
TGI [3]: 63.5 µM
GI50 [4]: 21.3 µM
TGI [4]: 48 µM
GI50 [5]: 12.7 µM
TGI [5]: 88.4 µM
GI50 [6]: 2.91 µM
TGI [6]: 7.86 µM
GI50 [7]: 4.03 µM
TGI [7]: > 100 µM
GI50 [8]: 3.76 µM
TGI [8]: 20.7 µM
GI50 [9]: 19.5 µM
TGI [9]: 46.5 µM
GI50 [10]: 4.48 µM
TGI [10]: 16.1 µM
GI50 [11]: 2.1 µM
TGI [11]: 7.04 µM
GI50 [12]: 12.8 µM
TGI [12]: 34.4 µM
GI50 [13]: 2.51 µM
TGI [13]: 18.9 µM
GI50 [14]: 17.1 µM
TGI [14]: > 100 µM
GI50 [15]: 3.11 µM
TGI [15]: 22.6 µM
GI50 [16]: 95.5 µM
TGI [16]: > 100 µM
GI50 [17]: 13 µM
TGI [17]: 27.6 µM
GI50 [18]: 4.33 µM
TGI [18]: 33.7 µM
GI50 [19]: 6.65 µM
TGI [19]: > 100 µM
GI50 [20]: 11.6 µM
TGI [20]: 45 µM
GI50 [21]: 2.31 µM
TGI [21]: 6.69 µM
GI50 [22]: 6.12 µM
TGI [22]: 87.6 µM
GI50 [23]: 2.01 µM
TGI [23]: 5.77 µM
GI50 [24]: 3.38 µM
TGI [24]: > 100 µM
GI50 [25]: 2.63 µM
TGI [25]: 11.7 µM
GI50 [26]: 2.91 µM
TGI [26]: 9.97 µM
GI50 [27]: 4.02 µM
TGI [27]: 15.4 µM
GI50 [28]: > 100 µM
TGI [28]: > 100 µM
